Holding throughout (type): functional
Assay [1] deals with Mycolicibacterium smegmatis. As to the kind of experiment: Tested for recognition of mycobacterial arabinosyl transferase incubated with 14C1 labeled decaprenol arabinofuranosyl phosphate in the presence of membrane extracts from Mycobacterium smegmatis in experiment 1 (%incorporation = 16.4).
The test system of assay [2] is Mycolicibacterium smegmatis. As to the kind of experiment: Tested for recognition of mycobacterial arabinosyl transferase incubated with 14C1 labeled decaprenol arabinofuranosyl phosphate in the presence of membrane extracts from Mycobacterium smegmatis in experiment 2 (%incorporation = 15.2).
The subject of assay [3] is Mycolicibacterium smegmatis. As to the kind of experiment: Average value of incorporation for recognition of mycobacterial arabinosyl transferase in experiments 1 and 2 (%incorporation = 16.1).
Assay [4] has as its system Mycolicibacterium smegmatis. Kind of assay: Tested for recognition of mycobacterial arabinosyl transferase incubated with 14C1 labeled decaprenol arabinofuranosyl phosphate in the presence of membrane extracts from Mycobacterium smegmatis in experiment 2 (%incorporation = 22.5).
Assay [5] concerns Mycolicibacterium smegmatis. Kind of assay: Average value of incorporation for recognition of mycobacterial arabinosyl transferase in experiments 1, 2 and 3 (%incorporation = 20.8).
Assay [6] has as its system Mycolicibacterium smegmatis. Kind of assay: Tested for recognition of mycobacterial arabinosyl transferase incubated with 14C1 labeled decaprenol arabinofuranosyl phosphate in the presence of membrane extracts from Mycobacterium smegmatis in experiment 1 (%incorporation = 21.9).
The subject of assay [7] is Mycolicibacterium smegmatis. As to the kind of experiment: Tested for recognition of mycobacterial arabinosyl transferase incubated with 14C1 labeled decaprenol arabinofuranosyl phosphate in the presence of membrane extracts from Mycobacterium smegmatis in experiment 3 (%incorporation = 18.2).
In assay [8] the test system is Mycolicibacterium smegmatis. Kind of assay: Average value of incorporation for recognition of mycobacterial arabinosyl transferase in experiments 1, 2 and 3 (%incorporation = 12.7).
In assay [9] the test system is Mycolicibacterium smegmatis. Kind of assay: Tested for recognition of mycobacterial arabinosyl transferase incubated with 14C1 labeled decaprenol arabinofuranosyl phosphate in the presence of membrane extracts from Mycobacterium smegmatis in experiment 1 (%incorporation = 12.9).
Assay [10] relates to Mycolicibacterium smegmatis. As to the kind of experiment: Tested for recognition of mycobacterial arabinosyl transferase incubated with 14C1 labeled decaprenol arabinofuranosyl phosphate in the presence of membrane extracts from Mycobacterium smegmatis in experiment 2 (%incorporation = 12.9).
For assay [11], the system named is Mycolicibacterium smegmatis. As to the kind of experiment: Tested for recognition of mycobacterial arabinosyl transferase incubated with 14C1 labeled decaprenol arabinofuranosyl phosphate in the presence of membrane extracts from Mycobacterium smegmatis in experiment 3 (%incorporation = 12.4).
Assay [12] relates to Mycolicibacterium smegmatis. As to the kind of experiment: Tested for recognition of mycobacterial arabinosyl transferase incubated with 14C1 labeled decaprenol arabinofuranosyl phosphate in the presence of membrane extracts from Mycobacterium smegmatis in experiment 2 (%incorporation = 16.1).
For assay [13], the system named is Mycolicibacterium smegmatis. Kind of assay: Average value of incorporation for recognition of mycobacterial arabinosyl transferase in experiments 1, 2 and 3 (%incorporation = 17.2).
Assay [14] concerns Mycolicibacterium smegmatis. As to the kind of experiment: Tested for recognition of mycobacterial arabinosyl transferase incubated with 14C1 labeled decaprenol arabinofuranosyl phosphate in the presence of membrane extracts from Mycobacterium smegmatis in experiment 3 (%incorporation = 16.4).
Assay [15] relates to Mycolicibacterium smegmatis. Kind of assay: Tested for recognition of mycobacterial arabinosyl transferase incubated with 14C1 labeled decaprenol arabinofuranosyl phosphate in the presence of membrane extracts from Mycobacterium smegmatis in experiment 1 (%incorporation = 19.1).
Assay [16] relates to Mycolicibacterium smegmatis. Kind of assay: Average value of incorporation for recognition of mycobacterial arabinosyl transferase in experiments 1, 2 and 3 (%incorporation = 14).
The test system of assay [17] is Mycolicibacterium smegmatis. Kind of assay: Tested for recognition of mycobacterial arabinosyl transferase incubated with 14C1 labeled decaprenol arabinofuranosyl phosphate in the presence of membrane extracts from Mycobacterium smegmatis in experiment 1 (%incorporation = 13.8).
Assay [18] relates to Mycolicibacterium smegmatis. Kind of assay: Tested for recognition of mycobacterial arabinosyl transferase incubated with 14C1 labeled decaprenol arabinofuranosyl phosphate in the presence of membrane extracts from Mycobacterium smegmatis in experiment 2 (%incorporation = 15.8).

`CO[C@H]1O[C@H](CO[C@H]2O[C@H](CO[C@H]3O[C@H](CO)[C@@H](O)[C@@H]3O)[C@@H](O[C@H]3O[C@H](CO)[C@@H](O)[C@@H]3O)[C@@H]2O)[C@@H](O)[C@@H]1O`: the Incorporation in assay [1] was found to be 6540 c.p.m; in [2] it was 6092 c.p.m. In addition, in assay [3], the Average came out at 6433 c.p.m.

On to `CO[C@H]1O[C@H](CO[C@H]2O[C@H](CO[C@H]3O[C@H](CO)[C@@H](O)[C@@H]3O)[C@@H](O)[C@@H]2O)[C@@H](O)[C@@H]1O`, for which the Incorporation in assay [4] was found to be 9011 c.p.m; in [6] it was 8732 c.p.m; in [7] it was 7271 c.p.m. For the same compound, in assay [5], the Average stood at 8338 c.p.m.

In assay [8], `CO[C@H]1O[C@H](CO[C@H]2O[C@H](CO)[C@@H](O)[C@@H]2O)[C@@H](O)[C@@H]1O` displayed an Average of 5095 c.p.m. Also, the Incorporation worked out at 5148 c.p.m in assay [9], 5148 c.p.m in [10] and 4990 c.p.m in assay [11].

Regarding `CO[C@H]1O[C@H](CO)[C@@H](O[C@H]2O[C@H](CO)[C@@H](O)[C@@H]2O)[C@@H]1O`, the Incorporation came out at 6432 c.p.m in assay [12], 6563 c.p.m in [14] and 7632 c.p.m in assay [15]. In addition, the Average in [13] stood at 6876 c.p.m.

For `CO[C@H]1O[C@H](CO[C@H]2O[C@H](CO)[C@@H](O[C@H]3O[C@H](CO)[C@@H](O)[C@@H]3O)[C@@H]2O)[C@@H](O)[C@@H]1O`, the Average in assay [16] is on record as 5600 c.p.m. Also, the results for the Incorporation in assay [17], in assay [18] and in [11] were 5513 c.p.m, 6326 c.p.m and 4960 c.p.m, respectively.

For the origin of these results see ChEMBL document CHEMBL1130757, “Synthetic arabinofuranosyl oligosaccharides as mycobacterial arabinosyltransferase substrates” (1998).
